This is an account of results in article PMC7367283, “A PIP2 substitute mediates voltage sensor-pore coupling in KCNQ activation” (Communications Biology, 2020).

Where “and” joins values, the source holds several entries; their conditions need not be identical. Equal values may be shown once.

This experiment deals with KCNQ2 (Homo sapiens, UniProt O43526). The experiment can be described thus: Two-electrode voltage clamp of KCNQ2 in Xenopus oocytes. Type of experiment: cell-based. The conditions noted are these: Q2, individual oocytes. The source says:
KCNQ2 and KCNQ3 form a channel complex that carries M currents in neurons. Similar to KCNQ1, these KCNQ subunits require PIP2 for voltage-dependent activation. KCNQ2 alone can express functional channels in Xenopus oocytes, while KCNQ3 alone cannot. However, a single mutation, A315T, allows KCNQ3 to functionally express in Xenopus oocytes. We examined the effects of CP1 on KCNQ2, KCNQ3 with mutation A315T (denoted as KCNQ3*), KCNQ2+KCNQ3, and KCNQ2+KCNQ3* expressed in Xenopus oocytes (Fig. 5a). Similar to the effects on KCNQ1 and IKs channels, CP1 changed the amplitude of currents (Fig. 5b), shifted the G–V relation to more negative voltages (Fig. 5c), and slowed the deactivation kinetics (Fig. 5d) for all of these KCNQ channels. These CP1 effects were relatively small on KCNQ2 as compared with those on other KCNQ channels, and the effects on KCNQ2/KCNQ3* and KCNQ2/KCNQ3 complexes were closer to those on KCNQ2 alone.
Fig. 5 Subtype selectivity of CP1 on KCNQ channels. a Current traces of KCNQ channels as indicated in the absence and the presence of 10 µM CP1. […]
The whole-oocyte ionic currents were recorded with a GeneClamp 500B amplifier (Axon Instruments, CA) or iTEV90 amplifier (HEKA, Germany) and then sampled at 1 kHz and low-pass-filtered at 2 kHz. […] The Kir1.1 current was recorded with a high K^+ bath solution containing (in mM) 96 KCl, 4 NaCl, 1 CaCl2, 2 MgCl2, and 10 HEPES, pH 7.3–7.4. The HCN4 current was recorded in ND66 solution containing (in mM) 66 NaCl, 32 KCl, 1.8 CaCl2, 1 MgCl2, and 5 HEPES, pH 7.6. All the other potassium channels were recorded in ND96 solution. The currents of CaV1.2 channel were recorded in 40 mM Ba^2+ bath solution containing (in mM) 40 Ba(OH)2, 50 TEA-OH, 2 KOH, and 5 HEPES, adjusted to pH 7.4 with methanesulfonic acid. […] The HCN4 currents were recorded by a test pulse between −30 and −140 mV in 10-mV step from a holding potential of −30 mV. […]
(In general: Two-electrode voltage clamp holds a large cell at a set potential and records current.)

For the molecule `O=S(=O)([O-])Oc1c(-c2sc3c(ccc4cccc(Cl)c43)c2OS(=O)(=O)[O-])[nH]c2ccc(Br)cc12.[Na+].[Na+]` [CP1, DISODIUM 5-BROMO-2-[9-CHLORO-3-(SULFONATOOXY) NAPHTHO [1,2-B] THIEN-2-YL]-1H-INDOL-3-YL SULFATE], the “outward current (Icp1/Ictrl)” value (10 µM CP1, at −10 mV) was 0.9785 and 0.9995 and 0.8123 and 1.2015 and 0.921 and 1.0361 and 1.0974 and 0.9815. Further, for the setting “10 µM CP1”, the “∆V1/2” value is 17.7074 mV and 18.0799 mV and 23.5635 mV and 19.0344 mV and 22.5139 mV and 21.9525 mV and 18.3088 mV and 15.6776 mV. Moreover, the “τ deact at -120 mV” value (10 µM CP1 treated) is 0.0991 s and 0.1579 s and 0.2146 s and 0.1525 s and 0.1022 s.
